Measurements as given in patent US20150335055A1, “BEVERAGE PR[…] BASED ON PIMARICIN AND HEADSPACE GAS” (PEPSICO, INC., priority 2013, published 2015).

Tests used:
[1] = short exposures; cited from earlier work
[2] = system: pooled inoculum of strains of Saccharomyces Brettanomyces and Zygosaccharomyces; test: 16 week spoilage trial in carbonated mock grape beverage (3.7 and 4.5 volumes CO2), Example 1; format: cell-based; details: 1.1 ppm pimaricin, no cyclodextrin; for first note of spoilage: 25° C.; for incidence of spoilage (frequency, 1=100%): after 100 days
Protocol: A 16 week trial was conducted with a mock grape 12 Brix 2% grape juice mock glass “pony” 9.8 oz. bottle. Beverages were carbonated to 3.7 and 4.5 volumes. Five containers of each CO2 level were not inoculated and served as negative controls. Five containers of each CO2 level were inoculated with a pooled inoculum of strains of Saccharomyces Brettanomyces and Zygosaccharomyces such that an initial cell density of 100 organisms per milliliter was achieved. These samples served as positive controls. Half of the remaining containers received the same inoculum and were also dosed with pimaricin to a concentration of 1.1 mg 1^−1 (mg per liter or mg/L). The remaining containers were dosed with pimaricin in complex with β-cyclodextrin in a manner that yielded a final concentration of pimaricin of 0.8 ppm. All samples were then held at 25° C. for the duration of the study. During the course of the study, pimaricin concentration was established in samples employing UV-Visible spectroscopy.

[3] = system: yeast which can spoil carbonated beverage; details: types of yeast which can spoil carbonated beverage; cited from earlier work
[4] = Degradation kinetics of pimaricin in beverage without β-cyclodextrin, UV-visible peak ratio (Background Example 2); format: physicochemical; details: beverage pH 3.4; no β-cyclodextrin
Text: (§1) Such reactions are a consequence of the formation of reactive oxygen species (ROS) wherein oxygen merely serves as an intermediate in the transfer of electrons in REDOX type reactions which ultimately result in the degradation of more complex molecules such as pimaricin. In this regard, O2 behaves similar to a catalyst. Similar to many reactions involving catalyst, the amount of oxygen required to drive in such reactions is very small. In this regard, it is of interest to evaluate the stability of pimaricin in solution under differing conditions of oxygen tension. Clearly, it is also of interest to establish whether the formation of a complex between pimaricin and β-cyclodextrin serves to stabilize pimaricin from degradation by reaction with oxygen. […] Briefly, pimaricin yields a very distinctive UV-visible spectrum with 3 separate absorption maxima. As pimaricin degrades, the peak heights diminish. Degradation can be tracked through the diminishing peak height of any single peak maxima or through changes in relative peak height.
Freshly prepared samples of pimaricin in water yield a spectrogram of 3 peak 1 (320 nm) peak 2 (304 nm) and peak 3 (291 nm). […] These differences are a reflection of the conjugated diene structure of pimaricin. As the integrity of the conjugate structure gives way to degradation, the relative peak heights are subject to change. […]

[5] = Pimaricin concentration over time in Example 1 samples by UV-Visible spectroscopy; format: physicochemical; details: pimaricin in the absence of cyclodextrin; initial 1.1 ppm; carbonated mock grape beverage, 25° C.
Text: as §1
A 16 week trial was conducted with a mock grape 12 Brix 2% grape juice mock glass “pony” 9.8 oz. bottle. Beverages were carbonated to 3.7 and 4.5 volumes. Five containers of each CO2 level were not inoculated and served as negative controls. […]

[6] = Loss of pimaricin over time in water as a function of O2 content and complex with β-cyclodextrin (Background Example 3); format: physicochemical
Text: as §1
Given a method to monitor the changes in concentration of pimaricin, it is then possible to establish whether pimaricin degrades differently as a function of variables such as initial oxygen tension of solution. Background Example 3, FIG. 3 captures results for the degradation of pimaricin over a time period of several months as a function of initial oxygen tension and the presence or absence of a complex between pimaricin and β (beta) cyclodextrin.
The initial concentration of pimaricin in complex ≧400 ppm and so pimaricin is fully bound to β-cyclodextrin. Measurements in distilled water at neutral pH and 25° C. Thus, regardless of the presence or absence of a complex with cyclodextrin, pimaricin is subject to degradation over time when in solution.

[7] = Solubility of pimaricin in aqueous solution; format: physicochemical

(IR,3S,5R,7R,8E,12R,14E,16E,18E,20E,22R,24S,25R,26S)-{[3S,4S,5S,6R)-4-amino-3,5-dihydroxy-6-methyloxan-2-yl]oxy}-1,3,26 trihydroxy-12-methyl-10-oxo-6,11,28-trioxatricyclo[22.3.1.0^5,7]octacosa-8,14,16,18,20 pentaene-25-carboxylic acid [pimaricin]
temperature to which antimicrobial activity is stable [1]: ≥ 120 ° F.
first note of spoilage ([2]; 3.7 volumes CO2): 20 days
first note of spoilage ([2]; 4.5 volumes CO2): 20 days
incidence of spoilage (frequency, 1=100%) ([2]; 3.7 volumes CO2): 0.6
incidence of spoilage (frequency, 1=100%) ([2]; 4.5 volumes CO2): 0.6
reported MIC values [3]: ≥ 10 ppm
degradation in aqueous suspension [4]: degrades relatively quickly
half-life of degradation [5]: about 35 days
effect of lowering oxygen concentration on rate of degradation ([6]; not complexed, oxygen lowered to 3500 ppb): does not measurably impact the rate of degradation
degradation over time ([6]; not complexed, water containing oxygen in excess of 8500 ppb): degrades quite quickly
rate of degradation versus water containing 8300 ppm O2 ([6]; pimaricin alone in water containing only, neutral pH, 25° C.): about the same rate
rate of degradation versus pimaricin complex β-cyclodextrin ([6]; water containing 8300 ppb O2, distilled water, neutral pH, 25° C.): slightly faster rate
normal limit of solubility ([7]; beverage of acid pH, 25° C.): 20-25 ppm
limit of solubility ([7]; high acid beverage): 25 ppm
limit of solubility in aqueous solution ([7]; in the absence of β-cyclodextrin): 20-25 mg 1^−1
